According to PubChem BioAssay (NCI):
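Where inhibition never reached the appropriate level, the endpoint shown equals the highest concentration tested. Otherwise, values were interpolated linearly from a five-concentration, 48-hour dose response in 96-well plates. The concentration for 50% growth inhibition is given as GI50. The concentration for full growth arrest is given as TGI.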

Columns and labels:
Assay in all cases: DTP human tumour cell line panel, 48 h
SN12C renal = test system: SN12C renal
COLO 205 colon = test system: COLO 205 colon
NCI-H226 lung = test system: NCI-H226 lung
ACHN renal = test system: ACHN renal
OVCAR-4 ovarian = test system: OVCAR-4 ovarian
HS 578T breast = test system: HS 578T breast
OVCAR-8 ovarian = test system: OVCAR-8 ovarian
M14 melanoma = test system: M14 melanoma
CCRF-CEM leukemia = test system: CCRF-CEM leukemia
HCC-2998 colon = test system: HCC-2998 colon

| Structure (SMILES) | GI50 (SN12C renal) | TGI (SN12C renal) | GI50 (COLO 205 colon) | TGI (COLO 205 colon) | GI50 (NCI-H226 lung) | TGI (NCI-H226 lung) | GI50 (ACHN renal) | TGI (ACHN renal) | GI50 (OVCAR-4 ovarian) | TGI (OVCAR-4 ovarian) | GI50 (HS 578T breast) | TGI (HS 578T breast) | GI50 (OVCAR-8 ovarian) | TGI (OVCAR-8 ovarian) | GI50 (M14 melanoma) | TGI (M14 melanoma) | GI50 (CCRF-CEM leukemia) | TGI (CCRF-CEM leukemia) | GI50 (HCC-2998 colon) | TGI (HCC-2998 colon) |
| --- | --- | --- | --- | --- | --- | --- | --- | --- | --- | --- | --- | --- | --- | --- | --- | --- | --- | --- | --- | --- |
| CCN(CC)S(=O)(=O)c1cccc(-c2ccc3c(NC(=O)C4CC4)n[nH]c3c2)c1 | 3.77 µM | > 6.25 µM | 1.71 µM | > 6.25 µM | 3.78 µM | > 6.25 µM | 3.54 µM | > 6.25 µM | 1.61 µM | > 6.25 µM | 1.83 µM | > 6.25 µM | 2.69 µM | > 6.25 µM | 1.47 µM | > 6.25 µM | 1.84 µM | > 6.25 µM | > 6.25 µM | > 6.25 µM |
| NC(Cc1cccnn1)C(=O)O (centres undefined) | – | > 100 µM | – | > 100 µM | – | > 100 µM | – | > 100 µM | – | > 100 µM | – | > 100 µM | – | > 100 µM | – | > 100 µM | – | > 100 µM | – | > 100 µM |
| COc1ccc(/C=C\c2cc(OC)c(OC)c(OC)c2)cc1OC(=O)CC(N)C(=O)O (centres undefined) | 0.00412 µM | > 100 µM | 4.11 µM | 21 µM | – | 0.107 µM | 0.000709 µM | > 100 µM | 9.51 µM | > 100 µM | 0.00262 µM | 0.00314 µM | 0.00195 µM | – | 0.00046 µM | – | 0.000495 µM | – | 0.0951 µM | > 100 µM |
| CCC[n+]1cc2cc3c(cc2c2c1-c1cc4c(cc1C2)OCO4)OCO3 (tested in a mixture with another compound) | 0.0664 µM | 0.777 µM | 0.49 µM | 3.79 µM | 0.719 µM | 7.96 µM | 12.1 µM | 51.3 µM | 0.853 µM | 5.9 µM | 0.437 µM | 3.53 µM | 0.575 µM | 12.2 µM | 2.49 µM | 7.81 µM | 2.38 µM | 15 µM | 0.504 µM | 2.14 µM |
| OC(CN1CCCC2CCCCC21)c1cc2ccccc2c2ccccc12 (centres undefined) | 3.38 µM | 13.4 µM | 1.45 µM | 2.9 µM | 2.14 µM | 6.32 µM | 3 µM | 10.1 µM | 2.39 µM | 12.4 µM | 2.37 µM | 7.46 µM | 3.2 µM | 15.3 µM | 1.52 µM | 2.86 µM | 1.87 µM | 5.2 µM | 1.78 µM | 3.9 µM |
| C#CCOc1cccc(Nc2ncnc3cc(NC(=O)C=C)ccc23)c1 | 7.63 µM | > 100 µM | 5.41 µM | > 100 µM | 29.7 µM | > 100 µM | 4.74 µM | > 100 µM | 29.6 µM | > 100 µM | 5.87 µM | 89.8 µM | 7.72 µM | 57.8 µM | 6.46 µM | > 100 µM | 4.08 µM | > 100 µM | 11.6 µM | 60.4 µM |
| CCCCSc1nc(N)c2cn[nH]c2n1 | 12.8 µM | 28.5 µM | 19.8 µM | 48.8 µM | 15.6 µM | 36.6 µM | 24.8 µM | > 76.1 µM | 23.6 µM | 70.4 µM | 22 µM | 63.2 µM | 23.2 µM | > 60.4 µM | 13.3 µM | 29.5 µM | 23.6 µM | 68 µM | 0.22 µM | 2.26 µM |
| Cc1nc2sc(C(=O)Nc3ccccc3)c(N)c2cc1C(O)c1ccccc1 (centres undefined) | 0.46 µM | > 100 µM | 0.376 µM | 4.99 µM | 1.24 µM | > 100 µM | 0.512 µM | > 60.8 µM | 0.833 µM | > 100 µM | 0.325 µM | > 35.1 µM | 0.408 µM | > 100 µM | 0.182 µM | 15.2 µM | 0.234 µM | – | 0.329 µM | 6.27 µM |
| COC(=O)c1c2c(c(C)[n+]([O-])c1C)C(=O)C(NCc1ccc(F)cc1)=CC2=O | 1.17 µM | 2.62 µM | 0.376 µM | 1.36 µM | 2.16 µM | 4.87 µM | 1.73 µM | 4.04 µM | 0.519 µM | 1.87 µM | 2.47 µM | 8.03 µM | 1.59 µM | 7.78 µM | 1.21 µM | 2.69 µM | 2.34 µM | 8.36 µM | 1.79 µM | 4.57 µM |
| Cc1cc(Cl)nc(N(CCCNc2ccnc3cc(Cl)ccc23)Cc2cccs2)n1 | 1.4 µM | 12.5 µM | 1.39 µM | 3.58 µM | 2.56 µM | 15.5 µM | 2 µM | 11.5 µM | 2.81 µM | 25.6 µM | 2.21 µM | 12.9 µM | 2.06 µM | 10.4 µM | 1.23 µM | 2.91 µM | 2.56 µM | > 100 µM | 2.09 µM | 6.12 µM |
| c1cc(C2CCCCC2)ccc1-c1cnc2nonc2n1 | 1.1 µM | 3.21 µM | 1.99 µM | 6.39 µM | 1.75 µM | 4.22 µM | 1.14 µM | 2.39 µM | 0.856 µM | 2.28 µM | 1.02 µM | > 58.3 µM | 1.38 µM | > 19.8 µM | 0.499 µM | 2.16 µM | 0.408 µM | > 93.8 µM | 1.47 µM | 2.94 µM |
| Cc1ccc(N=Nc2c(O)ccc3n[nH]nc23)cc1 | 17 µM | > 100 µM | 22.4 µM | 73.9 µM | 15.3 µM | > 100 µM | 11.5 µM | 69.2 µM | 9.3 µM | > 100 µM | 10.9 µM | 58.4 µM | 16.5 µM | 75 µM | 27.8 µM | > 100 µM | 4.13 µM | 55.6 µM | 26.2 µM | > 100 µM |
| O=C1c2ccn(CCCNC(CO)(CO)CO)c2C(=O)c2c1c(O)c1ccccc1c2O | 3.16 µM | 17.9 µM | 13.2 µM | 29.4 µM | 60.7 µM | > 100 µM | 13.6 µM | 28.2 µM | 29.2 µM | > 51.2 µM | 1.22 µM | – | 15 µM | 36.9 µM | 14.1 µM | 30.1 µM | 10 µM | 44 µM | 2.52 µM | 8.2 µM |
